Experimental data reported in PubChem BioAssay (NCI).
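Cells were grown in 96-well plates and exposed to each compound for 48 hours at five concentrations; endpoints were interpolated linearly between bracketing concentrations, or set to the highest concentration if not reached. TGI: concentration producing complete growth inhibition.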

How the values were obtained:
Assay in all cases: NCI tumour cell line growth inhibition, 48 h
SW-620 colon = system: SW-620 colon
UO-31 renal = system: UO-31 renal
MOLT-4 leukemia = system: MOLT-4 leukemia
A498 renal = system: A498 renal
NCI-H23 lung = system: NCI-H23 lung
RPMI-8226 leukemia = system: RPMI-8226 leukemia
HT29 colon = system: HT29 colon
M14 melanoma = system: M14 melanoma
HOP-92 NSCLC = system: HOP-92 NSCLC
T-47D breast = system: T-47D breast
DU-145 prostate = system: DU-145 prostate
MDA-MB-231 breast = system: MDA-MB-231 breast
BT-549 breast = system: BT-549 breast

COc1ccc(/C=C/c2nc(=S)[nH][nH]2)cc1OC
TGI (SW-620 colon): > 100 µM | TGI (UO-31 renal): > 100 µM | TGI (MOLT-4 leukemia): > 100 µM | TGI (A498 renal): > 100 µM | TGI (NCI-H23 lung): > 100 µM | TGI (RPMI-8226 leukemia): > 100 µM | TGI (HT29 colon): > 100 µM | TGI (M14 melanoma): > 100 µM | TGI (HOP-92 NSCLC): > 100 µM

CC(=O)OCC1OC(n2c(O)c(N=NC(N)=S)c3ccc([N+](=O)[O-])cc32)C(OC(C)=O)C1OC(C)=O (centres undefined)
TGI (SW-620 colon): > 100 µM | TGI (MOLT-4 leukemia): 54.9 µM | TGI (NCI-H23 lung): 42.1 µM | TGI (RPMI-8226 leukemia): > 100 µM | TGI (HT29 colon): 96.2 µM | TGI (M14 melanoma): > 100 µM | TGI (HOP-92 NSCLC): > 100 µM

COC(=O)/C(=N\N)C(C(=O)C(=O)Nc1nc(=S)[nH][nH]1)c1nc2ccc([N+](=O)[O-])cc2[nH]c1=O (centres undefined)
TGI (SW-620 colon): > 100 µM | TGI (UO-31 renal): > 100 µM | TGI (MOLT-4 leukemia): > 100 µM | TGI (A498 renal): > 100 µM | TGI (NCI-H23 lung): > 100 µM | TGI (RPMI-8226 leukemia): > 100 µM | TGI (HT29 colon): > 100 µM | TGI (M14 melanoma): > 100 µM | TGI (HOP-92 NSCLC): > 100 µM

O=C1C2C3C=C4c5ccccc5N(c5ccccc5)C4([C@@H]2C(=O)N1c1ccc(F)cc1)[C@H]1C(=O)N(c2ccc(F)cc2)C(=O)[C@@H]31 (some centres undefined)
TGI (SW-620 colon): > 100 µM | TGI (UO-31 renal): 88.6 µM | TGI (MOLT-4 leukemia): > 100 µM | TGI (NCI-H23 lung): > 100 µM | TGI (RPMI-8226 leukemia): > 100 µM | TGI (M14 melanoma): > 100 µM | TGI (HOP-92 NSCLC): > 100 µM

COc1cc2c(cc1OC)[C@H]1C(COC(=O)Nc3ccccc3)CN1CC2 (some centres undefined)
TGI (SW-620 colon): > 100 µM | TGI (UO-31 renal): > 100 µM | TGI (MOLT-4 leukemia): > 100 µM | TGI (A498 renal): > 100 µM | TGI (NCI-H23 lung): > 100 µM | TGI (RPMI-8226 leukemia): > 100 µM | TGI (HT29 colon): > 100 µM | TGI (M14 melanoma): > 100 µM | TGI (HOP-92 NSCLC): > 100 µM

O=C(O)CCC(NC(=O)c1ccc(CNc2nc3cc(C(F)(F)F)ccc3nc2C(=O)O)cc1)C(=O)O (centres undefined)
TGI (SW-620 colon): > 100 µM | TGI (UO-31 renal): > 100 µM | TGI (MOLT-4 leukemia): > 100 µM | TGI (A498 renal): > 100 µM | TGI (NCI-H23 lung): > 100 µM | TGI (T-47D breast): > 100 µM | TGI (DU-145 prostate): > 100 µM | TGI (HT29 colon): > 100 µM | TGI (M14 melanoma): > 100 µM | TGI (HOP-92 NSCLC): > 100 µM

COC1(C)CNCC(C)(C)NC(=O)C(C)(OC)CNCC(C)(C)NC1=O (centres undefined)
TGI (SW-620 colon): > 100 µM | TGI (UO-31 renal): > 100 µM | TGI (MOLT-4 leukemia): > 100 µM | TGI (A498 renal): > 100 µM | TGI (NCI-H23 lung): > 100 µM | TGI (RPMI-8226 leukemia): > 100 µM | TGI (HT29 colon): > 100 µM | TGI (M14 melanoma): > 100 µM | TGI (HOP-92 NSCLC): > 100 µM

CC1OC(CC2C=CCc3c(O)c4c(c(O)c32)C(=O)c2ccccc2C4=O)CC(NC(=O)C(F)(F)F)C1O (centres undefined)
TGI (SW-620 colon): 81.5 µM | TGI (UO-31 renal): 42.7 µM | TGI (MOLT-4 leukemia): 22.5 µM | TGI (A498 renal): 16.5 µM | TGI (NCI-H23 lung): 20.7 µM | TGI (RPMI-8226 leukemia): 28 µM | TGI (HT29 colon): 40.5 µM | TGI (M14 melanoma): 16.1 µM | TGI (HOP-92 NSCLC): 8.39 µM

O=c1[nH]c(=O)n(C2CC(O)C(COP(=O)(OCC(Cl)(Cl)Cl)OCC(Cl)(Cl)Cl)O2)cc1F (centres undefined)
TGI (SW-620 colon): > 100 µM | TGI (UO-31 renal): > 100 µM | TGI (MOLT-4 leukemia): > 100 µM | TGI (NCI-H23 lung): > 100 µM | TGI (RPMI-8226 leukemia): > 100 µM | TGI (T-47D breast): > 100 µM | TGI (DU-145 prostate): > 100 µM | TGI (HT29 colon): > 100 µM | TGI (M14 melanoma): > 100 µM | TGI (HOP-92 NSCLC): > 100 µM | TGI (MDA-MB-231 breast): > 100 µM

COC(=O)CNC(=O)CSc1nnc(COc2ccc(Cl)cc2)n1-c1ccccc1
TGI (SW-620 colon): > 100 µM | TGI (UO-31 renal): 77.3 µM | TGI (MOLT-4 leukemia): > 100 µM | TGI (A498 renal): > 100 µM | TGI (NCI-H23 lung): > 100 µM | TGI (T-47D breast): > 100 µM | TGI (DU-145 prostate): 33.6 µM | TGI (HT29 colon): > 100 µM | TGI (M14 melanoma): > 100 µM | TGI (HOP-92 NSCLC): > 100 µM | TGI (MDA-MB-231 breast): 49.1 µM

COc1nc2c(c(=O)[nH]1)N=C(c1ccc(Cl)cc1)CC(c1ccccc1)N2 (centres undefined)
TGI (SW-620 colon): > 100 µM | TGI (UO-31 renal): > 100 µM | TGI (MOLT-4 leukemia): > 100 µM | TGI (A498 renal): > 100 µM | TGI (NCI-H23 lung): > 100 µM | TGI (RPMI-8226 leukemia): 65.8 µM | TGI (DU-145 prostate): > 100 µM | TGI (BT-549 breast): > 100 µM | TGI (HT29 colon): > 100 µM | TGI (M14 melanoma): 43 µM | TGI (HOP-92 NSCLC): 67.9 µM | TGI (MDA-MB-231 breast): 50.8 µM

O=c1c2ccccc2nc(N/N=C/c2ccc(Cl)cc2)n1-c1ccccc1
TGI (SW-620 colon): > 100 µM | TGI (UO-31 renal): 88 µM | TGI (MOLT-4 leukemia): > 100 µM | TGI (A498 renal): > 100 µM | TGI (NCI-H23 lung): > 100 µM | TGI (T-47D breast): > 100 µM | TGI (DU-145 prostate): > 100 µM | TGI (HT29 colon): > 100 µM | TGI (M14 melanoma): > 100 µM | TGI (HOP-92 NSCLC): > 100 µM | TGI (MDA-MB-231 breast): > 100 µM

Nc1ncc2c(n1)-c1ccccc1OC2N1CCOCC1 (centres undefined)
TGI (SW-620 colon): > 100 µM | TGI (UO-31 renal): > 100 µM | TGI (MOLT-4 leukemia): > 100 µM | TGI (NCI-H23 lung): > 100 µM | TGI (RPMI-8226 leukemia): > 100 µM | TGI (DU-145 prostate): > 100 µM | TGI (HT29 colon): > 100 µM | TGI (M14 melanoma): > 100 µM | TGI (HOP-92 NSCLC): > 100 µM | TGI (MDA-MB-231 breast): > 100 µM

COc1cc2cnc3c4cc(OC)c(OC(C)C)cc4ccc3c2cc1OC
TGI (SW-620 colon): > 100 µM | TGI (UO-31 renal): > 100 µM | TGI (MOLT-4 leukemia): > 100 µM | TGI (NCI-H23 lung): > 100 µM | TGI (RPMI-8226 leukemia): > 100 µM | TGI (HT29 colon): > 100 µM | TGI (M14 melanoma): > 100 µM | TGI (HOP-92 NSCLC): > 100 µM

COC(=O)[C@H](C)N(C)C(=O)[C@H](C)N1[C@@H](c2ccccc2)COC1(C)C
TGI (SW-620 colon): > 100 µM | TGI (UO-31 renal): > 100 µM | TGI (MOLT-4 leukemia): > 100 µM | TGI (A498 renal): > 100 µM | TGI (NCI-H23 lung): > 100 µM | TGI (RPMI-8226 leukemia): > 100 µM | TGI (T-47D breast): > 100 µM | TGI (BT-549 breast): > 100 µM | TGI (HT29 colon): > 100 µM | TGI (M14 melanoma): > 100 µM | TGI (HOP-92 NSCLC): > 100 µM | TGI (MDA-MB-231 breast): > 100 µM

C/C=C1/C(=Cc2[nH]c(C=c3[nH]/c(=C/C4=NC(=O)C(CC)=C4C)c(C)c3CCC(=O)O)c(CCC(=O)O)c2C)NC(=O)C1C (centres undefined)
TGI (SW-620 colon): > 50 µM | TGI (UO-31 renal): 20.1 µM | TGI (MOLT-4 leukemia): 37.2 µM | TGI (NCI-H23 lung): > 50 µM | TGI (HT29 colon): 49 µM | TGI (M14 melanoma): 6.11 µM | TGI (HOP-92 NSCLC): 15.9 µM

CC[C@]1(Cc2ccc(OC)c(OC)c2)C=[N+]([O-])O[C@H](OCc2ccccc2)[C@@H]1OC(C)=O
TGI (SW-620 colon): > 100 µM | TGI (UO-31 renal): > 100 µM | TGI (MOLT-4 leukemia): 27.3 µM | TGI (A498 renal): > 100 µM | TGI (NCI-H23 lung): > 100 µM | TGI (RPMI-8226 leukemia): 57.9 µM | TGI (T-47D breast): > 100 µM | TGI (DU-145 prostate): 93.5 µM | TGI (HT29 colon): 79.9 µM | TGI (M14 melanoma): > 100 µM | TGI (HOP-92 NSCLC): 77.3 µM | TGI (MDA-MB-231 breast): > 100 µM

CC(=O)OCC1=CC2CCC3C(C)(CCC[C@]3(C)COC(C)=O)C23CC[C@H]1C3 (some centres undefined)
TGI (SW-620 colon): > 100 µM | TGI (UO-31 renal): > 100 µM | TGI (MOLT-4 leukemia): 51.5 µM | TGI (A498 renal): > 100 µM | TGI (NCI-H23 lung): > 100 µM | TGI (RPMI-8226 leukemia): 63.1 µM | TGI (HT29 colon): > 100 µM | TGI (M14 melanoma): > 100 µM | TGI (HOP-92 NSCLC): 90.2 µM

Cc1ccc(O)c(C(c2cc(C)ccc2O)c2cc([N+](=O)[O-])ccc2O)c1
TGI (SW-620 colon): 67 µM | TGI (UO-31 renal): 21.5 µM | TGI (MOLT-4 leukemia): 35 µM | TGI (A498 renal): 39.5 µM | TGI (NCI-H23 lung): 28.9 µM | TGI (RPMI-8226 leukemia): 50.6 µM | TGI (T-47D breast): 77.8 µM | TGI (DU-145 prostate): 50.3 µM | TGI (HT29 colon): 38.3 µM | TGI (M14 melanoma): 24.5 µM | TGI (HOP-92 NSCLC): 38.9 µM | TGI (MDA-MB-231 breast): 22.3 µM

CCC(=O)CCC1=Nc2nnc(CCCCc3nnc4n3C(=O)C(CCC(=O)CC)=N4)n2C1=O
TGI (SW-620 colon): > 100 µM | TGI (UO-31 renal): > 100 µM | TGI (MOLT-4 leukemia): > 100 µM | TGI (A498 renal): > 100 µM | TGI (NCI-H23 lung): > 100 µM | TGI (RPMI-8226 leukemia): > 100 µM | TGI (HT29 colon): > 100 µM | TGI (M14 melanoma): > 100 µM | TGI (HOP-92 NSCLC): > 100 µM

COc1cccc(CCn2c(N)c(C#N)c3ccc([N+](=O)[O-])cc3c2=O)c1
TGI (SW-620 colon): > 100 µM | TGI (UO-31 renal): > 46.4 µM | TGI (MOLT-4 leukemia): > 31.6 µM | TGI (A498 renal): > 100 µM | TGI (NCI-H23 lung): > 46.4 µM | TGI (T-47D breast): > 46.4 µM | TGI (DU-145 prostate): > 46.4 µM | TGI (HT29 colon): > 31.6 µM | TGI (M14 melanoma): > 31.6 µM | TGI (HOP-92 NSCLC): > 31.6 µM | TGI (MDA-MB-231 breast): > 46.4 µM
